{
  "source": "paper PMC12392461",
  "about": "“Beyond Estrogenicity: A Comparative Assessment of Bisphenol A and Its Alternatives in In Vitro Assays Questions Safety of Replacements” (Environmental Science & Technology, 2025)",
  "key": {"Estrogen Receptor ERα [1]": {"target": "T1, Estrogen Receptor ERα (Homo sapiens, UniProt P03372)", "T1 sequence (P03372 311-547 limits assumed)": "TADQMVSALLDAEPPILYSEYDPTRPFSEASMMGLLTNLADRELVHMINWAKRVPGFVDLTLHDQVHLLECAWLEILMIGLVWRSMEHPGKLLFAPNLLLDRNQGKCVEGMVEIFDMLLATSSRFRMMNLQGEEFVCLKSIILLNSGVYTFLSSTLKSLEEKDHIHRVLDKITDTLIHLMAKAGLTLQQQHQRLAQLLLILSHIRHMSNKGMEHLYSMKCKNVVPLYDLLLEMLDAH", "assay": "cell-based", "procedure,_shortened": "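ERα-UAS-bla GripTite and PPARγ-UAS-bla reporter cells were seeded in assay medium with 2% charcoal-stripped FBS and held 24 h at 37 °C before dosing. Viability came from IncuCyte confluency before and after exposure. EC10 used only concentrations below IC10; Emax% is the log-logistic curve maximum relative to the reference chemical.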"}, "[2]": {"assay": "Octanol-water partition constant (log Kow) measurement, Sirius T3 potentiometric log P", "format": "physicochemical", "settings": "experimental, this study", "method": "Physicochemical properties provide input parameters for the baseline toxicity model. Acidity constants (pK a) and octanol–water partition constants of the neutral species (K ow) were measured with a Sirius T instrument from Pion Inc. (Sussex, UK) (Text S1.2 and Table S1). A detailed description of the pK a and K ow measurements can be found in literature. , […]\nS1.2: pKa and log Kow measurements […]\ntitrator (Pion Inc., Sussex, U.K.). […]\nUV absorbance. For log Kow measurement, approximately 1 mg of test chemical was added to a sample vial and the measurement was done automatically via the potentiometric log P protocol. Briefly, each compound is titrated thrice in an immiscible biphasic system of octanol and phosphate buffer solution and pH is continuously recorded. The shift in p Ka -values was used to estimate the log Kow values.2, 3 Data processing was performed with Sirius T3 Refine software (version 2.0.0.0.), and the final p Ka and log Kow values were calculated as the average of three titrations. To ensure reproducibility, measurements were conducted on at least two"}, "Estrogen Receptor ERα [3]": {"target": "T1, Estrogen Receptor ERα", "assay": "aCYP oxidation followed by ERα-UAS-bla GripTite assay (TK-Ratio of effect)", "format": "cell-based", "settings": "for EC10, after oxidation / EC10, before oxidation: ERα, in M; for EC10, after oxidation: after abiotic CYP catalyst; for TKERα: TKERα-Ratio", "method": "Cell culture conditions and bioassay protocols including response detection are provided in Text S2.1–2.4 and Table S3. − Cell viability was determined from cell confluency using an IncuCyte S3 Live-Cell Analysis System (Sartorius AG, Essen, Germany) before and after exposure, except for SH-SY5Y cells (live–dead staining with Nuclear Green LcS1 and propidium iodide, Abcam, UK). For metabolic activation experiments, cell viability was assessed using the ToxBLAzer DualScreen Kit (Thermo Fisher Scientific) to capture the remaining toxicity in ERα-UAS-bla GripTite after treatment with the aCYP catalyst (details in Text S2.4). […]\nThe TK-Ratio method was used to evaluate the impact of abiotic CYP oxidation on the potency of tested compounds. […]\nFor experiments with the preceding aCYP activation, ERα cell viability was additionally calculated from the readout of the ToxBLAzer reagent. The ToxBLAzer assay was conducted following the manufacturer's instructions (Thermo Fisher, Waltham, MA, U.S.).13 Fluorescence intensity was recorded at the start of the assay ( Fwavelength(0h)) and after a 2-hour incubation at […]\nCell viability was assessed based on the red fluorescence signal at 665 nm, applying eq. S11 for normalization.\nCell viability = F665nm(2h, sample)-F665nm(0h, average cell-free) (S11) F665nm(2h, average unexposed)-F665nm(0h, average cell-free) […]\nthe specific endpoint to avoid artifacts from cytotoxicity burst. 15\nS2.5: Concentration-response curves (CRCs)\nTo avoid bias from cytotoxicity burst at higher concentrations, all concentrations exceeding the IC10 for cytotoxicity were excluded in the CRC modeling of effects but otherwise cytotoxicity and effects were fitted with the same model equations (response stands for cytotoxicity or effect). For ERα, AhR, ARE and PPARγ preferably a linear model was fitted to the linear portion of CRC up to maximum 30% effect (eq. S12),16 but in some cases it was necessary to choose a sigmoidal log-concentration-response model, specifically a log-logistic model (eq. S13), to derive effect concentrations and cytotoxicity. For mitochondrial toxicity and neurotoxicity, the […]\nare not reporter gene assays. Common practice when using log-logistic models, e.g., the model implemented in tcpl package in R,17, 18 is that the minima and maxima are also fitted and only median effect concentrations AC50 are derived. […]\nconcentrations (EC10) for both linear and log-sigmoidal CRCs to allow absolute comparisons at the same effect level and for TR and SR -analysis. This was done using the AutomatedBioassayScreening19 published by Braun et al.,20 which also included an algorithm to choose the best model between eq. S12 and eq. S13.\nResponse (%) = slope × C (S12) […]\nlogEC =logEC − 1 ∙log (max−min − 100%) (S14)"}},
  "data": [
    {"smiles": "Oc1ccc(Cc2ccc(O)cc2)cc1", "note": "[BPF, Bis(4-hydroxyphenyl)methane]", "values": [
      {"measurement": "EC10, ERα (M)", "setting": "Estrogen Receptor ERα [1]; 10% of maximum effect of E2", "result": "9.95 × 10^–7 M"},
      {"measurement": "EC10, linear transformed", "setting": "Estrogen Receptor ERα [1]; Bioassay ERα, dosing range all, in M", "result": "9.67E-07"},
      {"measurement": "EC10, linear", "setting": "Estrogen Receptor ERα [1]; Bioassay ERα, dosing range all, linear model fit, in M", "result": "1.45E-06"},
      {"measurement": "logEC10", "setting": "Estrogen Receptor ERα [1]; Bioassay ERα, dosing range all, log-logistic model fit", "result": -6.00},
      {"measurement": "Efficacy %", "setting": "Estrogen Receptor ERα [1]; This Study", "result": 60.05, "unit": "%"},
      {"measurement": "EC10", "setting": "Estrogen Receptor ERα [1]; This Study, ERα, in M", "result": "9.95E-07"},
      {"measurement": "REPBPA", "setting": "Estrogen Receptor ERα [1]; This Study, relative estrogenic potency vs BPA", "result": "3.72E-01"},
      {"measurement": "EC10, ERα", "setting": "Estrogen Receptor ERα [1]; effect", "result": 0.995, "unit": "µM"},
      {"measurement": "log(1/EC10) ERα", "setting": "Estrogen Receptor ERα [1]; input of the ToxPi score, values up to 1.00", "result": 0.77},
      {"measurement": "Emax%ERα", "setting": "Estrogen Receptor ERα [1]; maximum efficacy relative to E2", "result": 60, "unit": "%"},
      {"measurement": "Emax", "setting": "Estrogen Receptor ERα [1]; read-out: Emax%ERα, maximum efficacy relative to E2", "result": "50 to 60", "unit": "%"},
      {"measurement": "log Kow used", "setting": "[2]", "result": 2.71},
      {"measurement": "EC10, after oxidation", "setting": "Estrogen Receptor ERα [3]; Table S10", "result": "1.00E-06"},
      {"measurement": "EC10, before oxidation", "setting": "Estrogen Receptor ERα [3]; Table S10", "result": "9.67E-07"},
      {"measurement": "TKERα", "setting": "Estrogen Receptor ERα [3]; Table S10", "result": 0.964},
      {"measurement": "EC10, after oxidation", "setting": "Estrogen Receptor ERα [3]; Table S11", "result": "1.36E-06"},
      {"measurement": "EC10, before oxidation", "setting": "Estrogen Receptor ERα [3]; Table S11", "result": "1.26E-06"},
      {"measurement": "TKERα", "setting": "Estrogen Receptor ERα [3]; Table S11", "result": 0.93}
    ]}
  ]
}
